Experimental data published in PubChem BioAssay (NCI).
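Method: 48-hour compound exposure of cells in 96-well plates, five concentrations, linear interpolation of endpoints. At the GI50, growth is halved. TGI: total growth inhibition.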

How the values were obtained:
Test in all cases: growth of human tumour cells (NCI), 48 h
KM12 colon = system: KM12 colon
786-0 renal = system: 786-0 renal
NCI-H522 lung = system: NCI-H522 lung
SW-620 colon = system: SW-620 colon
SF-268 CNS = system: SF-268 CNS
SF-539 CNS = system: SF-539 CNS
PC-3 prostate = system: PC-3 prostate
MDA-MB-435 = system: MDA-MB-435
HOP-92 NSCLC = system: HOP-92 NSCLC
MOLT-4 leukemia = system: MOLT-4 leukemia

O=C(O)C1C(C(=O)Nc2ccc3c(c2)Cc2ccccc2-3)C2(Cl)C(Cl)=C(Cl)C1(Cl)C2(Cl)Cl (centres undefined)
TGI (KM12 colon): 39 µM
TGI (786-0 renal): > 100 µM
TGI (NCI-H522 lung): 39.2 µM
TGI (SW-620 colon): 64.5 µM
TGI (SF-268 CNS): 64.5 µM
TGI (SF-539 CNS): 28.9 µM
TGI (PC-3 prostate): 30 µM
TGI (MDA-MB-435): 76.8 µM
TGI (HOP-92 NSCLC): 57.3 µM
TGI (MOLT-4 leukemia): 26.1 µM

CC(=O)OC1CC(n2cc(F)c(=O)[nH]c2=O)OC1CO (centres undefined)
TGI (KM12 colon): > 100 µM
TGI (786-0 renal): > 62.5 µM
TGI (NCI-H522 lung): 23.9 µM
TGI (SW-620 colon): > 86.8 µM
TGI (SF-268 CNS): > 73.8 µM
TGI (SF-539 CNS): 5.02 µM
TGI (PC-3 prostate): > 100 µM
TGI (MDA-MB-435): > 100 µM
TGI (HOP-92 NSCLC): > 69 µM
TGI (MOLT-4 leukemia): > 100 µM

COc1ccc(C(=O)c2ccc(OC)c(OC)c2OC)cc1
GI50 (KM12 colon): 0.492 µM
TGI (KM12 colon): 25.2 µM
GI50 (786-0 renal): 9.85 µM
TGI (786-0 renal): > 100 µM
GI50 (NCI-H522 lung): 1.81 µM
TGI (NCI-H522 lung): 6.03 µM
GI50 (SW-620 colon): 0.377 µM
TGI (SW-620 colon): > 100 µM
GI50 (SF-268 CNS): 5.2 µM
TGI (SF-268 CNS): > 100 µM
GI50 (SF-539 CNS): 1.79 µM
TGI (SF-539 CNS): 8.2 µM
GI50 (PC-3 prostate): 3.21 µM
TGI (PC-3 prostate): > 100 µM
GI50 (MDA-MB-435): 0.2 µM
TGI (MDA-MB-435): 0.525 µM
GI50 (HOP-92 NSCLC): 5.4 µM
TGI (HOP-92 NSCLC): > 100 µM
GI50 (MOLT-4 leukemia): 1.11 µM
TGI (MOLT-4 leukemia): > 100 µM

C/C(=N\NC(=O)c1ccncc1)c1ccc2ccccc2c1O
TGI (KM12 colon): 60.8 µM
TGI (786-0 renal): 48.4 µM
TGI (NCI-H522 lung): 12.4 µM
TGI (SW-620 colon): > 100 µM
TGI (SF-268 CNS): 40.8 µM
TGI (SF-539 CNS): 23.2 µM
TGI (PC-3 prostate): 96.9 µM
TGI (MDA-MB-435): > 100 µM
TGI (HOP-92 NSCLC): > 100 µM
TGI (MOLT-4 leukemia): 40.3 µM

CCCCCC(O)C1C(=O)OC(C)C(O)/C=C/C=C/C=C/C=C\C=C(\C)C(O)CC(O)CC(O)CC(O)CC(O)CC(O)CC1O (centres undefined)
GI50 (KM12 colon): > 100 µM
TGI (KM12 colon): > 100 µM
GI50 (786-0 renal): > 100 µM
TGI (786-0 renal): > 100 µM
GI50 (NCI-H522 lung): > 100 µM
TGI (NCI-H522 lung): > 100 µM
GI50 (SW-620 colon): > 100 µM
TGI (SW-620 colon): > 100 µM
GI50 (SF-268 CNS): > 100 µM
TGI (SF-268 CNS): > 100 µM
GI50 (SF-539 CNS): > 100 µM
TGI (SF-539 CNS): > 100 µM
GI50 (PC-3 prostate): > 100 µM
TGI (PC-3 prostate): > 100 µM
GI50 (MDA-MB-435): > 100 µM
TGI (MDA-MB-435): > 100 µM
GI50 (HOP-92 NSCLC): > 100 µM
TGI (HOP-92 NSCLC): > 100 µM
GI50 (MOLT-4 leukemia): > 100 µM
TGI (MOLT-4 leukemia): > 100 µM

CC(C)(C)[Si](C)(C)OCC1OC(n2cnc3c(NC(=O)c4ccccc4)ncnc32)CC1O (centres undefined)
TGI (KM12 colon): 87.4 µM
TGI (786-0 renal): 38.6 µM
TGI (NCI-H522 lung): 37.7 µM
TGI (SW-620 colon): > 100 µM
TGI (SF-268 CNS): > 100 µM
TGI (SF-539 CNS): 41 µM
TGI (PC-3 prostate): 95.5 µM
TGI (MDA-MB-435): 44.6 µM
TGI (HOP-92 NSCLC): 55.2 µM
TGI (MOLT-4 leukemia): 49.9 µM

CN(C)c1ccc(C(=C2C=CC(=[N+](C)C)C=C2)c2ccc(N(C)C)cc2)cc1 (tested in a mixture with another compound)
GI50 (KM12 colon): 0.0379 µM
TGI (KM12 colon): 0.172 µM
GI50 (786-0 renal): 0.104 µM
TGI (786-0 renal): 1.02 µM
TGI (NCI-H522 lung): 1.06 µM
GI50 (SW-620 colon): 0.0476 µM
TGI (SW-620 colon): 1.35 µM
TGI (SF-268 CNS): 1.29 µM
GI50 (SF-539 CNS): 0.0643 µM
TGI (SF-539 CNS): 0.748 µM
GI50 (PC-3 prostate): 0.0368 µM
TGI (PC-3 prostate): 1.6 µM
GI50 (MDA-MB-435): 0.0626 µM
TGI (MDA-MB-435): 0.676 µM
TGI (HOP-92 NSCLC): 0.714 µM
GI50 (MOLT-4 leukemia): 0.293 µM
TGI (MOLT-4 leukemia): 5.67 µM

CC(=O)Nc1ccc(Sc2ccc([N+](=O)[O-])o2)cc1
GI50 (KM12 colon): 2.84 µM
TGI (KM12 colon): 9.08 µM
GI50 (786-0 renal): 2.69 µM
TGI (786-0 renal): 7.55 µM
GI50 (NCI-H522 lung): 0.214 µM
TGI (NCI-H522 lung): 0.711 µM
GI50 (SW-620 colon): 0.767 µM
TGI (SW-620 colon): 2.22 µM
GI50 (SF-268 CNS): 3.16 µM
TGI (SF-268 CNS): 11.8 µM
GI50 (SF-539 CNS): 3.13 µM
TGI (SF-539 CNS): 11 µM
GI50 (PC-3 prostate): 2.23 µM
TGI (PC-3 prostate): 6.58 µM
GI50 (MDA-MB-435): 1.7 µM
TGI (MDA-MB-435): 3.44 µM
GI50 (HOP-92 NSCLC): 1.76 µM
TGI (HOP-92 NSCLC): 3.55 µM
GI50 (MOLT-4 leukemia): 2.14 µM
TGI (MOLT-4 leukemia): 6.42 µM

NS(=O)(=O)c1cc2c(cc1Cl)NC(Cc1ccccc1)NS2(=O)=O (centres undefined)
TGI (KM12 colon): > 100 µM
TGI (786-0 renal): > 100 µM
TGI (NCI-H522 lung): > 100 µM
TGI (SW-620 colon): > 100 µM
TGI (SF-268 CNS): > 100 µM
TGI (SF-539 CNS): > 100 µM
TGI (PC-3 prostate): > 100 µM
TGI (MDA-MB-435): > 100 µM
TGI (HOP-92 NSCLC): > 100 µM

O=C1C(Br)=CC2(C=C1Br)CCN=c1c2c(O)c2nc3ccccc3c3ccnc1c23
GI50 (KM12 colon): 2.42 µM
TGI (KM12 colon): 8.67 µM
GI50 (786-0 renal): 0.987 µM
TGI (786-0 renal): 2.37 µM
GI50 (NCI-H522 lung): 0.727 µM
TGI (NCI-H522 lung): 1.49 µM
GI50 (SW-620 colon): 0.712 µM
TGI (SW-620 colon): 1.72 µM
GI50 (SF-268 CNS): 0.672 µM
TGI (SF-268 CNS): 1.91 µM
GI50 (SF-539 CNS): 1.55 µM
TGI (SF-539 CNS): 6.11 µM
GI50 (PC-3 prostate): 1.44 µM
TGI (PC-3 prostate): 5.27 µM
GI50 (MDA-MB-435): 1.18 µM
TGI (MDA-MB-435): 3.09 µM
GI50 (HOP-92 NSCLC): 0.593 µM
TGI (HOP-92 NSCLC): 2.38 µM
GI50 (MOLT-4 leukemia): 0.143 µM
TGI (MOLT-4 leukemia): 2.67 µM

O=C1OCC(c2cccs2)=C1Cl
GI50 (KM12 colon): 76.3 µM
TGI (KM12 colon): > 100 µM
GI50 (786-0 renal): > 100 µM
TGI (786-0 renal): > 100 µM
GI50 (NCI-H522 lung): 42.4 µM
TGI (NCI-H522 lung): > 100 µM
GI50 (SW-620 colon): > 100 µM
TGI (SW-620 colon): > 100 µM
GI50 (SF-268 CNS): > 100 µM
TGI (SF-268 CNS): > 100 µM
GI50 (SF-539 CNS): 23.2 µM
TGI (SF-539 CNS): 86 µM
GI50 (PC-3 prostate): > 100 µM
TGI (PC-3 prostate): > 100 µM
GI50 (MDA-MB-435): > 100 µM
TGI (MDA-MB-435): > 100 µM
GI50 (HOP-92 NSCLC): 54.5 µM
TGI (HOP-92 NSCLC): > 100 µM
GI50 (MOLT-4 leukemia): > 100 µM
TGI (MOLT-4 leukemia): > 100 µM

Cc1ccc(C2NC(=S)NC3=C2CCOc2c3ccc3ccccc23)cc1 (centres undefined)
GI50 (KM12 colon): 8.25 µM
TGI (KM12 colon): > 100 µM
GI50 (786-0 renal): > 100 µM
TGI (786-0 renal): > 100 µM
GI50 (NCI-H522 lung): > 100 µM
TGI (NCI-H522 lung): > 100 µM
GI50 (SF-268 CNS): 96 µM
TGI (SF-268 CNS): > 100 µM
GI50 (SF-539 CNS): > 100 µM
TGI (SF-539 CNS): > 100 µM
GI50 (PC-3 prostate): 22.2 µM
TGI (PC-3 prostate): > 100 µM
GI50 (MDA-MB-435): 2.78 µM
TGI (MDA-MB-435): > 100 µM
GI50 (HOP-92 NSCLC): 39.8 µM
TGI (HOP-92 NSCLC): > 100 µM
GI50 (MOLT-4 leukemia): 7.97 µM
TGI (MOLT-4 leukemia): > 100 µM

CC(C)(C)c1nc2c(o1)C(=O)c1ccccc1C2=O
TGI (KM12 colon): 6.76 µM
TGI (786-0 renal): 5.51 µM
TGI (NCI-H522 lung): 3.85 µM
TGI (SW-620 colon): 4.4 µM
TGI (SF-268 CNS): 10.5 µM
TGI (SF-539 CNS): 3.4 µM
TGI (PC-3 prostate): 2.22 µM
TGI (MDA-MB-435): 0.327 µM
TGI (HOP-92 NSCLC): 6.44 µM
TGI (MOLT-4 leukemia): 16.9 µM

COc1ccc(/C(Cl)=C(\C=O)c2ccc([N+](=O)[O-])cc2)cc1OC
TGI (KM12 colon): 94.4 µM
TGI (786-0 renal): 20.1 µM
TGI (NCI-H522 lung): > 35.8 µM
TGI (SW-620 colon): 28.1 µM
TGI (SF-268 CNS): 29.4 µM
TGI (SF-539 CNS): 30.8 µM
TGI (PC-3 prostate): 48.1 µM
TGI (MDA-MB-435): 13.5 µM
TGI (HOP-92 NSCLC): 24.9 µM
TGI (MOLT-4 leukemia): > 27.4 µM

CC(C)[C@@]12C[C@@H](OC(=O)[C@H]3CO3)[C@@](C)(O1)[C@@H]1CC[C@@H](C)[C@H]1[C@@H]2OC(=O)/C=C/c1ccccc1
GI50 (KM12 colon): 19.1 µM
TGI (KM12 colon): > 60 µM
GI50 (786-0 renal): 3.55 µM
TGI (786-0 renal): 22 µM
GI50 (NCI-H522 lung): 14.3 µM
TGI (NCI-H522 lung): 32.7 µM
GI50 (SW-620 colon): 29.9 µM
TGI (SW-620 colon): > 100 µM
GI50 (SF-268 CNS): 0.777 µM
TGI (SF-268 CNS): > 81.2 µM
GI50 (SF-539 CNS): 17.5 µM
TGI (SF-539 CNS): 43.3 µM
GI50 (PC-3 prostate): 9.59 µM
TGI (PC-3 prostate): > 88.1 µM
GI50 (MDA-MB-435): 20.6 µM
TGI (MDA-MB-435): > 73.5 µM
GI50 (HOP-92 NSCLC): 9.22 µM
TGI (HOP-92 NSCLC): 27.1 µM
GI50 (MOLT-4 leukemia): 18.1 µM
TGI (MOLT-4 leukemia): > 100 µM
